Holding throughout (type): cell-based
The target of experiment [1] is T1, human TLR9 (Homo sapiens, UniProt Q9NR96).
T1 construct: host or cells: HEK-Blue cells
T1 sequence (Q9NR96 26-1032): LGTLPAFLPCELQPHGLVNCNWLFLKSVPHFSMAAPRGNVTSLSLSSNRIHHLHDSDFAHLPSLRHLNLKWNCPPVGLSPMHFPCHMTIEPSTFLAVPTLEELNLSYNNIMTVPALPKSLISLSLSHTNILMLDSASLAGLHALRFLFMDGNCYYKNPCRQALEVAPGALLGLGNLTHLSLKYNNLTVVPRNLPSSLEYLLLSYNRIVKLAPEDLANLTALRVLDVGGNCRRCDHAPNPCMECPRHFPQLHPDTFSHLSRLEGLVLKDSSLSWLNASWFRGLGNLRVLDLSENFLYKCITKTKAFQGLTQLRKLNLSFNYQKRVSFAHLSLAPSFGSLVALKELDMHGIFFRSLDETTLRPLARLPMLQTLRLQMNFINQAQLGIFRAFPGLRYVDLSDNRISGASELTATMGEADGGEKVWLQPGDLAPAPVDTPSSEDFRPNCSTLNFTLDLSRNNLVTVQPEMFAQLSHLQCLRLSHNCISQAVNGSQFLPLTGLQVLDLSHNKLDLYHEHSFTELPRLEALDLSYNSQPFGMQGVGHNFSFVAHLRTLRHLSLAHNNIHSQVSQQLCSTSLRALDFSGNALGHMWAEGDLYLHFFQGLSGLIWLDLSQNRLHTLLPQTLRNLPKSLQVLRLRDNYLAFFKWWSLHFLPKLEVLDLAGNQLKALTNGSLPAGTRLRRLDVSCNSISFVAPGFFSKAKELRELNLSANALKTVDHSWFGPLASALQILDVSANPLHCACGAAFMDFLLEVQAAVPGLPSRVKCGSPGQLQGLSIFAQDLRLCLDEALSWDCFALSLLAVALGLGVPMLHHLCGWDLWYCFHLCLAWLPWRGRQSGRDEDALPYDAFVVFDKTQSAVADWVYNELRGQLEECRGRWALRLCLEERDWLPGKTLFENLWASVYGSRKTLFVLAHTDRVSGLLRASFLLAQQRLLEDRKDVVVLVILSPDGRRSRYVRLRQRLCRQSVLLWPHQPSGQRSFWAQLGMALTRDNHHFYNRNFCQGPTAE
Put plainly: TLR9 inhibition reporter assay (HEK-Blue cells, SEAP reporter). Particulars: HEK-Blue cells overexpressing human TLR9; stimulated with ODN2006 5 nM; SEAP read after 22 hour; dose range 0.05 nM-50 μM. In a few lines:
(§1)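 HEK-Blue cells with NF-κB/AP-1-driven SEAP pre-treated 30 min with compounds (0.05 nM-50 μM), then stimulated with gardiquimod 7.5 μM (TLR7), R848 15.9 μM (TLR8) or ODN2006 5 nM (TLR9). SEAP read after 22 h at 37° C; % inhibition relative to agonist+DMSO and reference-inhibitor wells.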

Experiment [2] has as its target T2, human TLR7 (Homo sapiens, UniProt Q9NYK1).
T2 construct: host or cells: HEK-Blue cells
T2 sequence (Q9NYK1 27-1049): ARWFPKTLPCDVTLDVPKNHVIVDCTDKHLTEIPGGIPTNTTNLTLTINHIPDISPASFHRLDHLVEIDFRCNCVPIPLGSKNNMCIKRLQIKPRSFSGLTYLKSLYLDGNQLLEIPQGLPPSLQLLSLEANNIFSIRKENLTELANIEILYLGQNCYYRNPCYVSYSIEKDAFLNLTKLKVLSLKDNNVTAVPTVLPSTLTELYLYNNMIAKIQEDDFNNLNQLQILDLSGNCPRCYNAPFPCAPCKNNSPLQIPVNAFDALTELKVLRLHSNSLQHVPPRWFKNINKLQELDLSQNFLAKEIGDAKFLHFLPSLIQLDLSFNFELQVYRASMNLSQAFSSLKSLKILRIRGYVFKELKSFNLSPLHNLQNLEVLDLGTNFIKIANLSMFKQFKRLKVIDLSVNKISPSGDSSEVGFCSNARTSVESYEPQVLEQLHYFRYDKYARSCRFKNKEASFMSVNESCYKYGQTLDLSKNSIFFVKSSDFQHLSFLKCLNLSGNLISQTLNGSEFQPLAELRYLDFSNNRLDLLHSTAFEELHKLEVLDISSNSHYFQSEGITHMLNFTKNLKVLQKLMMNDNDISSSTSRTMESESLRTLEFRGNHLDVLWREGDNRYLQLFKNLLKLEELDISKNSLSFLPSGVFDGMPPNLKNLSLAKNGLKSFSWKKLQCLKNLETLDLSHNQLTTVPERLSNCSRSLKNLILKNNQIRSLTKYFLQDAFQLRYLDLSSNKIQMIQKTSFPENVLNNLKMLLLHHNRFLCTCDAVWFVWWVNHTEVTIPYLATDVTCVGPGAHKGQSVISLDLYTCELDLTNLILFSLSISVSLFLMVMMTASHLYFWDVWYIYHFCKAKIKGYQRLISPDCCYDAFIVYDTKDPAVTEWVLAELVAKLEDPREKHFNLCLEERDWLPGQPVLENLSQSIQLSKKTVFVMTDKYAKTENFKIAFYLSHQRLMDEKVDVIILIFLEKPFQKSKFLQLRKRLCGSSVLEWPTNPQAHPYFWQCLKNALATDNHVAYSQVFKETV
Put plainly: TLR7 inhibition reporter assay (HEK-Blue cells, SEAP reporter). Particulars: HEK-Blue cells overexpressing human TLR7; stimulated with gardiquimod 7.5 μM; SEAP read after 22 hour; dose range 0.05 nM-50 μM. In a few lines:
as §1

The target in experiment [3] is T3, human TLR8 (Homo sapiens, UniProt Q9NR97).
T3 construct: host or cells: HEK-Blue cells
T3 sequence (Q9NR97 27-1041): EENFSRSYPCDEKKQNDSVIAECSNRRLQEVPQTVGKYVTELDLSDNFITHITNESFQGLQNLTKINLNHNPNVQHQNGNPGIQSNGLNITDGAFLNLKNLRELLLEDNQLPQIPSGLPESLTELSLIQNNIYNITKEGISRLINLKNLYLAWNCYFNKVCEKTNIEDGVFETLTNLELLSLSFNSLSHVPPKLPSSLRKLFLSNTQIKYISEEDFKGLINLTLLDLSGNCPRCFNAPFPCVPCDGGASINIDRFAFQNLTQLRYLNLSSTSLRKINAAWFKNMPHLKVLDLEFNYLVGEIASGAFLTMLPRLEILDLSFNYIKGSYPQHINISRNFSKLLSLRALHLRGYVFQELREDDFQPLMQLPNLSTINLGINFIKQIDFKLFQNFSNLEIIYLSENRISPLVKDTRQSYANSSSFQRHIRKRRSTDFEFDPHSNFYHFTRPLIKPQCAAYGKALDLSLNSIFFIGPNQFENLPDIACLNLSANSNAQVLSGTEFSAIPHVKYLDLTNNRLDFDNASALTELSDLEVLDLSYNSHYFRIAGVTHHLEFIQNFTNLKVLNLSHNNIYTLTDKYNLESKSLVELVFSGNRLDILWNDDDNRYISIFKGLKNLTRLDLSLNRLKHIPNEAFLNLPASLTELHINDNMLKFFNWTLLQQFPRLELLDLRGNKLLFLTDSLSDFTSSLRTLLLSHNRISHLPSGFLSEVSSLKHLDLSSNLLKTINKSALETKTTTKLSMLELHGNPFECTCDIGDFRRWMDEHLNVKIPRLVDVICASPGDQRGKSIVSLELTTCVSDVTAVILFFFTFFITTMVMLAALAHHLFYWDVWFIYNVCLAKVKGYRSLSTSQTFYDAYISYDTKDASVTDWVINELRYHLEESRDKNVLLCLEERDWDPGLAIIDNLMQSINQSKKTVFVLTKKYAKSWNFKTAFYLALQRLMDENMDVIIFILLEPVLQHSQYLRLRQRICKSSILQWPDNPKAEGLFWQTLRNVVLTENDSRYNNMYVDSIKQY
The experiment can be described thus: TLR8 inhibition reporter assay (HEK-Blue cells, SEAP reporter). The settings on record: HEK-Blue cells overexpressing human TLR8; stimulated with R848 15.9 μM; SEAP read after 22 hour; dose range 0.05 nM-50 μM. In a few lines: as §1
(In a reporter assay the amount or activity of a reporter protein is the signal.)

For `CC(C)N1CCC(c2ccc(Nc3ccc4c(c3)cc(-c3ccc(S(C)(=O)=O)cc3)c(=O)n4C)cc2)CC1` [Example 75, 3-(4-methanesulfonylphenyl)-1-methyl-6-({4-[1-(propan-2-yl)piperidin-4-yl]phenyl}amino)-1,2-dihydroquinolin-2-one], the results for the IC50 in experiment [1], in experiment [2] and in experiment [3] were 253 nM, 6630 nM and ≥ 50000 nM, respectively.
With `CC(C)N1CCN(c2ccc(-c3ccc4[nH]c(=O)c(-c5cccc(F)c5F)cc4c3)cc2)CC1` [Example 24, 3-(2,3-difluorophenyl)-6-{4-[4-(propan-2-yl)piperazin-1-yl]phenyl}-1,2-dihydroquinolin-2-one], the IC50 came to 224 nM in experiment [1], 2000 nM in experiment [2] and 15200 nM in experiment [3].
The like results for `CC(=O)Nc1ccc(-c2cc3cc(-c4ccc(N5CCN(C(C)C)CC5)cc4)ccc3[nH]c2=O)cc1` [Example 5, N-[4-(2-oxo-6-{4-[4-(propan-2-yl)piperazin-1-yl]phenyl}-1,2-dihydroquinolin-3-yl)phenyl]acetamide] were, in that order, 59 nM, 3870 nM and ≥ 50000 nM.
The matching figures for `CC(C)N1CCC(c2ccc(-c3ccc4[nH]c(=O)c(-c5ccc(S(C)(=O)=O)cc5)cc4c3)cc2)CC1` [Example 71, 3-(4-methanesulfonylphenyl)-6-{4-[1-(propan-2-yl)piperidin-4-yl]phenyl}-1,2-dihydroquinolin-2-one]: 140 nM, 29900 nM and 9280 nM.
For `CC(C)N1CCN(c2ccc(-c3ccc4[nH]c(=O)c(-c5cccc(NS(C)(=O)=O)c5)cc4c3)cc2)CC1` [Example 8, N-[3-(2-oxo-6-{4-[4-(propan-2-yl)piperazin-1-yl]phenyl}-1,2-dihydroquinolin-3-yl)phenyl]methanesulfonamide], the results for the IC50 in experiment [1], in experiment [2] and in experiment [3] were 87 nM, 299 nM and 1820 nM, respectively.
The matching figures for `CC(C)N1CCN(c2ccc(-c3ccc4c(c3)cc(-c3ccc(NC(=O)c5ccccn5)cc3)c(=O)n4C)cc2)CC1` [Example 50, N-[4-(1-methyl-2-oxo-6-{4-[4-(propan-2-yl)piperazin-1-yl]phenyl}-1,2-dihydroquinolin-3-yl)phenyl]pyridine-2-carboxamide]: 242 nM, 15600 nM and ≥ 50000 nM.
The like results for `CC(C)N1CCN(c2ccc(-c3ccc4[nH]c(=O)c(-c5ccc(-n6cnnn6)cc5)cc4c3)cc2)CC1` [Example 7, 3-(4-(1H-tetrazol-1-yl)phenyl)-6-(4-(4-isopropylpiperazin-1-yl)phenyl)quinolin-2(1H)-one] were, in that order, 80 nM, 1130 nM and ≥ 50000 nM.
The like results for `CC(C)N1CCN(c2ccc(-c3ccc4[nH]c(=O)c(-c5ccccn5)cc4c3)cc2)CC1` [Example 6, 6-{4-[4-(propan-2-yl)piperazin-1-yl]phenyl}-3-(pyridin-2-yl)-1,2-dihydroquinolin-2-one] were, in that order, 79 nM, 3830 nM and ≥ 50000 nM.
For the compound `CC(C)N1CCN(c2ccc(-c3ccc4[nH]c(=O)c(-c5cc(F)c(F)cc5F)cc4c3)cc2)CC1` [Example 10, 6-{4-[4-(propan-2-yl)piperazin-1-yl]phenyl}-3-(2,4,5-trifluorophenyl)-1,2-dihydroquinolin-2-one], the figures for the IC50 in experiment [1], in experiment [2] and in experiment [3] were 118 nM, ≥ 50000 nM and ≥ 50000 nM, respectively.
On to `CC(C)N1CCC(c2ccc(-c3ccc4c(c3)cc(-c3ccc(S(C)(=O)=O)cc3)c(=O)n4CC(C)(C)O)cc2)CC1` [Example 89, 1-(2-hydroxy-2-methylpropyl)-3-(4-methanesulfonylphenyl)-6-{4-[1-(propan-2-yl)piperidin-4-yl]phenyl}-1,2-dihydroquinolin-2-one], for which the IC50 came out at 465 nM in experiment [1], 4960 nM in experiment [2] and 10900 nM in experiment [3].
The matching figures for `CCc1c(-c2ccc(S(C)(=O)=O)cc2)c(=O)[nH]c2ccc(C3CCN(C4CCN(C(C)C)CC4)CC3)cc12` [Example 66, 4-ethyl-3-(4-methanesulfonylphenyl)-6-[1′-(propan-2-yl)-[1,4′-bipiperidine]-4-yl]-1,2-dihydroquinolin-2-one]: 57 nM, 9970 nM and ≥ 50000 nM.
The matching figures for `CC(C)N1CCN(c2ccc(-c3ccc4[nH]c(=O)c(-c5c(F)cc(F)cc5F)cc4c3)cc2)CC1` [Example 41, 6-{4-[4-(propan-2-yl)piperazin-1-yl]phenyl}-3-(2,4,6-trifluorophenyl)-1,2-dihydroquinolin-2-one]: 411 nM, 4770 nM and ≥ 50000 nM.

For orientation: IC50 means the point on the concentration scale where inhibition reaches its midpoint. Lower therefore signals higher potency.

The values above are taken from patent US20260183275A1, “SUBSTITUTED QUINOLONE COMPOUNDS USEFUL AS INHIBITORS OF TLR9” (Bristol-Myers Squibb Company, priority 2022, published 2026).
